Measurements from BindingDB's records for PubMed 20126400 (University of Oklahoma, 2010).

Columns and labels:
Test in all cases: Ray2010 Assay 74
Cannabinoid receptor 2 = Cannabinoid receptor 2 (Homo sapiens, UniProt P34972)
Text: (§1) Table S2 shows raw Ki data for the current study combined with data collected from the literature for the ten additional compounds.

Nischarin = Nischarin (Homo sapiens, UniProt Q9Y2I1)
Text: as §1

[1] = biological target: 5-hydroxytryptamine receptor 7 (Homo sapiens, UniProt P34969)
Sequence of 5-hydroxytryptamine receptor 7 (P34969 whole entry): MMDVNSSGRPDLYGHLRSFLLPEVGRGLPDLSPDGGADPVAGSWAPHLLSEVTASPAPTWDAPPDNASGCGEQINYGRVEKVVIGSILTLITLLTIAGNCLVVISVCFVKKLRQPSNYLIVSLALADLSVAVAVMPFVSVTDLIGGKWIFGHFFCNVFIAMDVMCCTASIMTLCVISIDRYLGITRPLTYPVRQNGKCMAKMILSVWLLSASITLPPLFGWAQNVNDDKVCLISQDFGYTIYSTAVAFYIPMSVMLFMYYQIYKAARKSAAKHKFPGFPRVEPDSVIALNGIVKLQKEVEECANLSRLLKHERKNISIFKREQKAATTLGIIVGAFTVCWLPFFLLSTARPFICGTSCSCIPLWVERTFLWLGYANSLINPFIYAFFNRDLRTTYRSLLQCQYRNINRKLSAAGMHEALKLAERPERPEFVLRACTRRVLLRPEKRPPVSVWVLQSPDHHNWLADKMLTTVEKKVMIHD
Text: as §1

Cannabinoid receptor 1 = Cannabinoid receptor 1 (Homo sapiens, UniProt P21554)
Sequence of Cannabinoid receptor 1 (P21554 whole entry): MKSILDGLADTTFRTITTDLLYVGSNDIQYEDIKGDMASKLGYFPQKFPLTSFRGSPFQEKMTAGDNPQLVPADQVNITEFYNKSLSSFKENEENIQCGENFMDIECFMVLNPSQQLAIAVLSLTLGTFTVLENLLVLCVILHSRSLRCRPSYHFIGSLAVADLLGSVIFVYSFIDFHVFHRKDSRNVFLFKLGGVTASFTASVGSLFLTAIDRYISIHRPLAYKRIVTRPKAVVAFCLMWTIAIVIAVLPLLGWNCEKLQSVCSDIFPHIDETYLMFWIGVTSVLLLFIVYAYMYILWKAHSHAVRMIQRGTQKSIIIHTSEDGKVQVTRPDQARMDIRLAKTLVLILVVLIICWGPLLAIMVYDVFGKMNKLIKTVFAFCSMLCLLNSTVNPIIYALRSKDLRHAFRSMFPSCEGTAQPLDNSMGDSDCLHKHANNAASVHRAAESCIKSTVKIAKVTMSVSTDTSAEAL
Text: as §1

[2] = biological target: T1, Alpha-2C adrenergic receptor (Homo sapiens, UniProt P18825)
T1 sequence (P18825 whole entry): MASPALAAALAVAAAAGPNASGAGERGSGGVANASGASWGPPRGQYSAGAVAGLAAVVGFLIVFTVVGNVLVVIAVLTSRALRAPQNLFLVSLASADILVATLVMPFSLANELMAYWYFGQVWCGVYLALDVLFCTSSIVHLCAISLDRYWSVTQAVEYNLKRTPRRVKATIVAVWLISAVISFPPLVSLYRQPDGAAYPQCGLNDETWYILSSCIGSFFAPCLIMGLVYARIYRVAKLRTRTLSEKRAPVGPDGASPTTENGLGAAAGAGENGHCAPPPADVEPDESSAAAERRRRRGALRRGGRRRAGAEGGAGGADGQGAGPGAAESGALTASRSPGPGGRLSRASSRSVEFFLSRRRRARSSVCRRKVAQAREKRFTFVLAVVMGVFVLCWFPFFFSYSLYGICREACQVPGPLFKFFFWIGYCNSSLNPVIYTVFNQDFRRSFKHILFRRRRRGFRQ
Text: as §1

[3] = biological target: Beta-2 adrenergic receptor (Homo sapiens, UniProt P07550)
Text: as §1

[4] = biological target: T2, 5-hydroxytryptamine receptor 2C (Homo sapiens, UniProt P28335)
T2 sequence (P28335 whole entry): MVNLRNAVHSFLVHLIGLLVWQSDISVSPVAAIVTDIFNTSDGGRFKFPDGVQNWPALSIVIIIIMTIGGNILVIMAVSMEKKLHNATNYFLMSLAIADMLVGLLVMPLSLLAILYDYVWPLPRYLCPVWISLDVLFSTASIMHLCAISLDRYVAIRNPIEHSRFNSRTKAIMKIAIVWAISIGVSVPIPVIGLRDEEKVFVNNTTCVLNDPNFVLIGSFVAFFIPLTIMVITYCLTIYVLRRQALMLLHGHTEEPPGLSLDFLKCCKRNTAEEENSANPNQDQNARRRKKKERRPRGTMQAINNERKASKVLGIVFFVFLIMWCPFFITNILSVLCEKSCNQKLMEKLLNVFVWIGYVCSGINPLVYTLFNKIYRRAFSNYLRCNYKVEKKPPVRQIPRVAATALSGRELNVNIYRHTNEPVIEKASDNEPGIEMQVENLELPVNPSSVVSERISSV
Text: as §1

Vasopressin V1b receptor = biological target: T3, Vasopressin V1b receptor (Homo sapiens, UniProt P47901)
T3 sequence (P47901 whole entry): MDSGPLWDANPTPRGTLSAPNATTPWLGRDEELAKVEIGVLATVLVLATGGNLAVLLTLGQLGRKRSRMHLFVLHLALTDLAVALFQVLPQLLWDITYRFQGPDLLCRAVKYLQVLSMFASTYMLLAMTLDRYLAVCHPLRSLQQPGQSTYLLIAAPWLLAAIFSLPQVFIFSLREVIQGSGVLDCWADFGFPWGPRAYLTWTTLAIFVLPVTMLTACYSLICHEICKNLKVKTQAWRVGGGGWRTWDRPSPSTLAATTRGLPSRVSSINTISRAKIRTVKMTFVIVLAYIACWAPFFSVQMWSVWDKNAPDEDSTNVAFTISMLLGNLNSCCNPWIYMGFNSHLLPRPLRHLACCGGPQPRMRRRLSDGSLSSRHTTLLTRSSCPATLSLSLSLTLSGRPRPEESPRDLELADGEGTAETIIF
Text: as §1

[5] = biological target: Neuronal acetylcholine receptor subunit alpha-4/beta-2 (Homo sapiens, UniProt P17787+P43681)
Text: as §1

[6] = biological target: Neuronal acetylcholine receptor subunit alpha-2/beta-2 (Homo sapiens, UniProt P17787+Q15822)
Sequence of Neuronal acetylcholine receptor subunit alpha-2/beta-2 (P17787 whole entry): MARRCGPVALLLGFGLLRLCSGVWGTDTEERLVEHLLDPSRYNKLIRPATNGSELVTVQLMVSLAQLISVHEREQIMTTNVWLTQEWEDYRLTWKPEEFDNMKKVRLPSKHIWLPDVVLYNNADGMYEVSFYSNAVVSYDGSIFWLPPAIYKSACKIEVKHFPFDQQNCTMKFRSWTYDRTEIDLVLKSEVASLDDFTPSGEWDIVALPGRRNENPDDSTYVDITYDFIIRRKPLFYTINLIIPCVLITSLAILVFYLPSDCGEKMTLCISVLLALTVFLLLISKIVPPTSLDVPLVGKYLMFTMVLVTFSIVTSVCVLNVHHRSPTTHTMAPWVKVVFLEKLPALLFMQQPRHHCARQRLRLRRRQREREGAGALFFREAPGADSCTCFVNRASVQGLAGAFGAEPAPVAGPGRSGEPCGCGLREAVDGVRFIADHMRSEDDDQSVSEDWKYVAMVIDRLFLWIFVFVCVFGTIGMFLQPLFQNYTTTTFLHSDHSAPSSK
Sequence of Neuronal acetylcholine receptor subunit alpha-2/beta-2 (Q15822 whole entry): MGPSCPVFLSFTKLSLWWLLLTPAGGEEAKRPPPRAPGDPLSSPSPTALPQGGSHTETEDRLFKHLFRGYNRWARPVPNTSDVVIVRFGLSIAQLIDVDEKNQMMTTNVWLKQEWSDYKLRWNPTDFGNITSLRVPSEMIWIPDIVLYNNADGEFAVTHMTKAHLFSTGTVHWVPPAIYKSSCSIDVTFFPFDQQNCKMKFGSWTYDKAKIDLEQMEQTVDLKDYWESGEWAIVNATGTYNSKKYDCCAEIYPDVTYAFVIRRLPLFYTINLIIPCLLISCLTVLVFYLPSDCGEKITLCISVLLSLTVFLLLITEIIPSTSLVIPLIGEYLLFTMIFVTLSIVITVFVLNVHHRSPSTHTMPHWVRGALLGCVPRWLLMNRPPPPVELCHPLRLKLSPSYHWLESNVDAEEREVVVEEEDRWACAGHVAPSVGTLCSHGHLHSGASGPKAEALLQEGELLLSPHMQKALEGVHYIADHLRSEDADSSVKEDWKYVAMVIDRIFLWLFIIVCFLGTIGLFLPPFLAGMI
Text: as §1

[7] = biological target: Neuronal acetylcholine receptor subunit alpha-4/beta-2 (Mus musculus, UniProt O70174+Q9ERK7)
Text: as §1

[8] = biological target: Neuronal acetylcholine receptor subunit alpha-2/beta-4 (Homo sapiens, UniProt P30926+Q15822)
Sequence of Neuronal acetylcholine receptor subunit alpha-2/beta-4 (Q15822 whole entry): as above
Sequence of Neuronal acetylcholine receptor subunit alpha-2/beta-4 (P30926 whole entry): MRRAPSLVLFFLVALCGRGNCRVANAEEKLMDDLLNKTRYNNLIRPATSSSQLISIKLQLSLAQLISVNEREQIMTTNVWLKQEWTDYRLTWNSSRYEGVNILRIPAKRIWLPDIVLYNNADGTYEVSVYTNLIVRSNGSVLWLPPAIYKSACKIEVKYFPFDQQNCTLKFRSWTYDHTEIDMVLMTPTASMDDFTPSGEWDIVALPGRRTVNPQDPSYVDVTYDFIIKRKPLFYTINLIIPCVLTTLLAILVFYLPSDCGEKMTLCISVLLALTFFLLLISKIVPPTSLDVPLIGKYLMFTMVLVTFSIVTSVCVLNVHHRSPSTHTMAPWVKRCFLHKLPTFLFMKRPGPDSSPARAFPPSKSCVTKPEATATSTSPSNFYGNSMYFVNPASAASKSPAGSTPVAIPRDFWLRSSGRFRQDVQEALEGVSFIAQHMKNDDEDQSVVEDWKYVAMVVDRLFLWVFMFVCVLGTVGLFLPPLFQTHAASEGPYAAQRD
Text: as §1

[9] = biological target: Neuronal acetylcholine receptor subunit alpha-4/beta-4 (Homo sapiens, UniProt P30926+P43681)
Text: as §1

[10] = biological target: Neuronal acetylcholine receptor subunit alpha-3/beta-2 (Homo sapiens, UniProt P17787+P32297)
Sequence of Neuronal acetylcholine receptor subunit alpha-3/beta-2 (P17787 whole entry): as the sequence (P17787 whole entry) above
Sequence of Neuronal acetylcholine receptor subunit alpha-3/beta-2 (P32297 whole entry): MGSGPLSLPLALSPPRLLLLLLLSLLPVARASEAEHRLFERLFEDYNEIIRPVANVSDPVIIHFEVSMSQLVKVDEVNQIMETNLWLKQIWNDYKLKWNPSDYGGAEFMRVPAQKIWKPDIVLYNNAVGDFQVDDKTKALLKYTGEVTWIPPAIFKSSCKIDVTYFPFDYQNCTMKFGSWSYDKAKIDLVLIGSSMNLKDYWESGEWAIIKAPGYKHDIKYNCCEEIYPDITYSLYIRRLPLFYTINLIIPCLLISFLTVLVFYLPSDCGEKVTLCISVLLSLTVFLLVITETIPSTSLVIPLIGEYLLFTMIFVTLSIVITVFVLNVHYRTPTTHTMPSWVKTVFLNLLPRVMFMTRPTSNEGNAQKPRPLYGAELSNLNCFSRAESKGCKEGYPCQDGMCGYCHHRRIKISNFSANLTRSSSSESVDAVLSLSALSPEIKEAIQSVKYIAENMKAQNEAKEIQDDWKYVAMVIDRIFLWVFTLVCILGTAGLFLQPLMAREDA
Text: as §1

[11] = biological target: Metabotropic glutamate receptor 6 (Homo sapiens, UniProt O15303)
Text: as §1

[12] = biological target: Metabotropic glutamate receptor 2 (Homo sapiens, UniProt Q14416)
Text: as §1

[13] = biological target: Metabotropic glutamate receptor 1 (Homo sapiens, UniProt Q13255)
Text: as §1

[14] = biological target: Metabotropic glutamate receptor 8 (Homo sapiens, UniProt O00222)
Text: as §1

[15] = biological target: Metabotropic glutamate receptor 5 (Homo sapiens, UniProt P41594)
Text: as §1

[16] = biological target: Metabotropic glutamate receptor 4 (Homo sapiens, UniProt Q14833)
Text: as §1

Sequence of Nischarin (Q9Y2I1 whole entry): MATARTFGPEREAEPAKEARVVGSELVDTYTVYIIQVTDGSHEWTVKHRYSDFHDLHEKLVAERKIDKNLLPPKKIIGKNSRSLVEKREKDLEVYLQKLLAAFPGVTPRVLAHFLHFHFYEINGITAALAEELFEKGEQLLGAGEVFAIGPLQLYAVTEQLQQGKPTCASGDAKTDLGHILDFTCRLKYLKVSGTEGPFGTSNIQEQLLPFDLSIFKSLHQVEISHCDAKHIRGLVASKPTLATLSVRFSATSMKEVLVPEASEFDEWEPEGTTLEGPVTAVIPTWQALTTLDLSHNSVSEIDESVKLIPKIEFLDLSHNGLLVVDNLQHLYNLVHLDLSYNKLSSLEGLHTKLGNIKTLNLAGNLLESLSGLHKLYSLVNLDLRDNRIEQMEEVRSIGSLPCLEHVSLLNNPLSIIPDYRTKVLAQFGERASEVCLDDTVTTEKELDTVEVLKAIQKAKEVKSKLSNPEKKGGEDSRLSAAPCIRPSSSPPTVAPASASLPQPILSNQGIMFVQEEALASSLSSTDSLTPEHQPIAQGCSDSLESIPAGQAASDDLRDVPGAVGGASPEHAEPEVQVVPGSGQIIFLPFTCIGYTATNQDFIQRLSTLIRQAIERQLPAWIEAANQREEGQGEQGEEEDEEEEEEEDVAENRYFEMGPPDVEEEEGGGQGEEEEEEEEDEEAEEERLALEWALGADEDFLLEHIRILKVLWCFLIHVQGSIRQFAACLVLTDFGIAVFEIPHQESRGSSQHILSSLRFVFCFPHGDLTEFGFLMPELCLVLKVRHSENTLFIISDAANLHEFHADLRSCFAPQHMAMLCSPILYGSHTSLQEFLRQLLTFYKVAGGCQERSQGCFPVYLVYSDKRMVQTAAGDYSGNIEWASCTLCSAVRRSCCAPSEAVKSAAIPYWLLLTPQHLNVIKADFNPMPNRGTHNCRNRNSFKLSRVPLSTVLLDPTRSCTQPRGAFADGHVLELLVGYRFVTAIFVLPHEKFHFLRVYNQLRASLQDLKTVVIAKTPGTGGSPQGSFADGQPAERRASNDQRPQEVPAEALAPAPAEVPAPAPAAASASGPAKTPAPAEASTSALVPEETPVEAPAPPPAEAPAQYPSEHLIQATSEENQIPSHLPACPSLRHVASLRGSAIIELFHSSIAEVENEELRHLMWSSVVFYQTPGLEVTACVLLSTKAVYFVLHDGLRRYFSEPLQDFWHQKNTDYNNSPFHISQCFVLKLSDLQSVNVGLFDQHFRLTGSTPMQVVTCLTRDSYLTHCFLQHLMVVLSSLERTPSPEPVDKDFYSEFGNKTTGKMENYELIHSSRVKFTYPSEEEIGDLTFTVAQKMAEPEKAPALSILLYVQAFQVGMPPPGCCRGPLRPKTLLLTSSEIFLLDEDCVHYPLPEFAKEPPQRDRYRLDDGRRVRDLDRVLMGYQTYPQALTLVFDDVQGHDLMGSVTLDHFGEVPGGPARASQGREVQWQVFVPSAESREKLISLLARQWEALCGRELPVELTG
Sequence of Cannabinoid receptor 2 (P34972 whole entry): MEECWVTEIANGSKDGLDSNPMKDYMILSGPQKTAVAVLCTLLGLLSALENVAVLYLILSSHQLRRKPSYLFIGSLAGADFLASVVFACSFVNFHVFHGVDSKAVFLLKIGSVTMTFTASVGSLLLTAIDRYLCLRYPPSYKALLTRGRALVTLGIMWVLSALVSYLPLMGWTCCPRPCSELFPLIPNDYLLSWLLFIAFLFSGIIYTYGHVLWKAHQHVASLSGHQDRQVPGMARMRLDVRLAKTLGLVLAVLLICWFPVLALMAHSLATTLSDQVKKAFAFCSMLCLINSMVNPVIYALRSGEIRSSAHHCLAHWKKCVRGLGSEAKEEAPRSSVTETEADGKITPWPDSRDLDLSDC

CC(N)Cc1ccc2c(c1)OCO2 (stereo not given)
Ki (Cannabinoid receptor 2): > 10 µM
Ki (Nischarin): > 10 µM
Ki [1]: 3.55 µM
Ki (Cannabinoid receptor 1): > 10 µM
Ki [2]: 0.229 µM
Ki [3]: > 10 µM

CCOc1cc(OC)c(CC(C)N)cc1OC (stereo not given)
Ki (Cannabinoid receptor 2): > 10 µM
Ki (Nischarin): > 10 µM
Ki [1]: 7.16 µM
Ki [4]: > 10 µM
Ki (Cannabinoid receptor 1): > 10 µM
Ki (Vasopressin V1b receptor): > 10 µM
Ki [2]: > 10 µM
Ki [3]: > 10 µM

COc1cc(CCN)c(OC)cc1Br
Ki (Cannabinoid receptor 2): > 10 µM
Ki (Nischarin): 2.16 µM
Ki [1]: 0.209 µM
Ki (Cannabinoid receptor 1): > 10 µM
Ki (Vasopressin V1b receptor): > 10 µM
Ki [2]: 0.103 µM

CCSc1cc(OC)c(CC(N)CC)cc1OC (stereo not given) [1-(4-Ethylsulfanyl-2,5-dimethoxy-benzyl)-propylamine]
Ki (Cannabinoid receptor 2): > 10 µM
Ki (Nischarin): 0.947 µM
Ki [1]: 3.83 µM
Ki (Cannabinoid receptor 1): > 10 µM
Ki (Vasopressin V1b receptor): > 10 µM
Ki [2]: > 10 µM

CN(C)CCc1c[nH]c2ccccc12 [2-(1H-indol-3-yl)-N,N-dimethylethanamine]
Ki (Cannabinoid receptor 2): > 10 µM
Ki (Nischarin): 0.65 µM
Ki [1]: 0.0875 µM
Ki (Cannabinoid receptor 1): > 10 µM
Ki [3]: > 10 µM

CCc1cc(OC)c(CCN)cc1OC [2-(2,5-dimethoxy-4-ethylphenyl)ethylamine]
Ki (Cannabinoid receptor 2): > 10 µM
Ki (Nischarin): > 10 µM
Ki [1]: 0.426 µM
Ki (Cannabinoid receptor 1): > 10 µM
Ki (Vasopressin V1b receptor): > 10 µM
Ki [2]: 0.0902 µM

COc1cc(CC(C)N)c(OC)cc1Br (stereo not drawn) [2-(4-Bromo-2,5-dimethoxy-phenyl)-1-methyl-ethylamine((-)-DOB)]
Ki (Cannabinoid receptor 2): > 10 µM
Ki [1]: 0.506 µM
Ki (Cannabinoid receptor 1): > 10 µM
Ki (Vasopressin V1b receptor): > 10 µM
Ki [2]: 0.594 µM

CCSc1cc(OC)c(CC(C)N)cc1OC (stereo not given) [2-(4-Ethylsulfanyl-2,5-dimethoxy-phenyl)-1-methyl-ethylamine]
Ki (Cannabinoid receptor 2): > 10 µM
Ki (Nischarin): 0.32 µM
Ki [1]: 1.32 µM
Ki (Cannabinoid receptor 1): > 10 µM
Ki (Vasopressin V1b receptor): > 10 µM
Ki [2]: 1.39 µM

NCCc1c2c(c(Br)c3c1OCC3)OCC2 [2-(8-Bromo-2,3,6,7-tetrahydro-benzo[1,2-b;4,5-b']difuran-4-yl)-ethylamine]
Ki (Cannabinoid receptor 2): 8.97 µM
Ki (Nischarin): > 10 µM
Ki [5]: > 10 µM
Ki [6]: > 10 µM
Ki [7]: > 10 µM
Ki [8]: > 10 µM
Ki [9]: > 10 µM
Ki [4]: 0.0106 µM
Ki (Cannabinoid receptor 1): > 10 µM
Ki [2]: 0.233 µM
Ki [3]: > 10 µM
Ki [10]: > 10 µM

CCSc1cc(OC)c(CCN)cc1OC [2C-T-2]
Ki (Cannabinoid receptor 2): > 10 µM
Ki (Nischarin): 2.08 µM
Ki (Cannabinoid receptor 1): > 10 µM
Ki (Vasopressin V1b receptor): > 10 µM
Ki [2]: 0.166 µM

COC(=O)[C@@H]1C[C@H](OC(C)=O)C(=O)[C@H]2[C@@]1(C)CC[C@H]1C(=O)O[C@H](c3ccoc3)C[C@]21C [2S,4aR,6a(R,7R,9S,10aS,10bR)-9-(acetyloxy)-2-(furan-3-yl)dodecahydro-6a,10b-dimethyl-4,10-dioxo-2H-naphtho[2,1-c]pyran-7-carboxylic acid methyl ester]
Ki [1]: > 10 µM
Ki [4]: > 10 µM
Ki [3]: > 10 µM

COc1cc(CCN)cc(OC)c1OC [3,4,5-trimethoxyphenylethylamine]
Ki (Cannabinoid receptor 2): > 10 µM
Ki (Nischarin): 2.68 µM
Ki [1]: > 10 µM
Ki [4]: > 10 µM
Ki (Cannabinoid receptor 1): > 10 µM
Ki (Vasopressin V1b receptor): > 10 µM
Ki [2]: 0.745 µM
Ki [3]: > 10 µM

COc1ccc2[nH]cc(CCN(C)C)c2c1 [3-(2-DIMETHYLAMINOETHYL)-5-METHOXYINDOLE]
Ki (Cannabinoid receptor 2): > 10 µM
Ki (Nischarin): 2.5 µM
Ki (Cannabinoid receptor 1): > 10 µM
Ki [2]: 0.508 µM
Ki [3]: > 10 µM

CN(C)CCc1c[nH]c2cccc(O)c12 [4-hydroxy-N,N-dimethyltryptamine]
Ki (Cannabinoid receptor 2): > 10 µM
Ki (Nischarin): 0.792 µM
Ki (Cannabinoid receptor 1): > 10 µM
Ki [3]: > 10 µM

COc1ccc2[nH]cc(CCN(C(C)C)C(C)C)c2c1 [5-meo-dipt]
Ki (Cannabinoid receptor 2): > 10 µM
Ki (Nischarin): 0.76 µM
Ki [1]: 1.23 µM
Ki [4]: > 10 µM
Ki (Cannabinoid receptor 1): > 10 µM
Ki (Vasopressin V1b receptor): > 10 µM
Ki [2]: 2.86 µM
Ki [3]: > 10 µM

COc1ccc2[nH]cc(CCN(C)C(C)C)c2c1 [5-meo-mipt]
Ki (Cannabinoid receptor 2): > 10 µM
Ki (Nischarin): 0.879 µM
Ki [1]: 0.0198 µM
Ki (Vasopressin V1b receptor): > 10 µM
Ki [2]: 0.637 µM
Ki [3]: > 10 µM

CN(C)CCc1c[nH]c2cc(F)ccc12 [6-f-dmt]
Ki (Cannabinoid receptor 2): > 10 µM
Ki (Nischarin): 0.898 µM
Ki [1]: 0.0408 µM
Ki (Cannabinoid receptor 1): > 10 µM
Ki (Vasopressin V1b receptor): > 10 µM
Ki [2]: 0.149 µM
Ki [3]: > 10 µM

COc1cc(OC)c(OC)cc1CC(C)N (stereo not drawn) [(+/-)1-Methyl-2-(2,4,5-trimethoxy-phenyl)-ethylamine]
Ki [1]: > 10 µM
Ki [2]: > 10 µM
Ki [3]: > 10 µM

COc1cc(CC(C)N)c(OC)cc1C (stereo not drawn) [(+/-)2-(2,5-Dimethoxy-4-methyl-phenyl)-1-methyl-ethylamine]
Ki (Cannabinoid receptor 2): > 10 µM
Ki (Nischarin): > 10 µM
Ki [1]: 1.59 µM
Ki [5]: > 10 µM
Ki [6]: > 10 µM
Ki [7]: > 10 µM
Ki [8]: > 10 µM
Ki [9]: > 10 µM
Ki (Cannabinoid receptor 1): > 10 µM
Ki [2]: 0.921 µM
Ki [10]: > 10 µM

CCN(CC)C(=O)[C@@H]1C=C2c3cccc4[nH]cc(c34)C[C@H]2N(C)C1 [[N-methyl-3H]LSD]
Ki [5]: > 10 µM
Ki [11]: > 10 µM
Ki [12]: > 10 µM
Ki [6]: > 10 µM
Ki [13]: > 10 µM
Ki [7]: > 10 µM
Ki [14]: > 10 µM
Ki [8]: > 10 µM
Ki [9]: > 10 µM
Ki (Vasopressin V1b receptor): > 10 µM
Ki [15]: > 10 µM
Ki [16]: > 10 µM
Ki [10]: > 10 µM

C[C@@H]1C[C@H](C)N1C(=O)C1C=C2c3cccc4[nH]cc(c34)C[C@H]2N(C)C1 (stereo partly drawn) [cis-2a]
Ki [5]: > 10 µM
Ki [11]: > 10 µM
Ki [12]: > 10 µM
Ki [6]: > 10 µM
Ki [13]: > 10 µM
Ki [7]: > 10 µM
Ki [14]: > 10 µM
Ki [8]: > 10 µM
Ki [9]: > 10 µM
Ki (Vasopressin V1b receptor): > 10 µM
Ki [15]: > 10 µM
Ki [16]: > 10 µM
Ki [10]: > 10 µM

CC(C)N(CCc1c[nH]c2ccccc12)C(C)C [dipt]
Ki (Cannabinoid receptor 2): > 10 µM
Ki (Nischarin): 0.356 µM
Ki [1]: 3.42 µM
Ki [4]: > 10 µM
Ki (Cannabinoid receptor 1): > 10 µM
Ki (Vasopressin V1b receptor): > 10 µM
Ki [2]: 2.52 µM
Ki [3]: > 10 µM

CCCN(CCC)CCc1c[nH]c2ccccc12 [dpt]
Ki (Cannabinoid receptor 2): > 10 µM
Ki [1]: 0.284 µM
Ki (Cannabinoid receptor 1): > 10 µM
Ki (Vasopressin V1b receptor): > 10 µM
Ki [2]: 0.514 µM
Ki [3]: > 10 µM

CAS_82830-44-2::(2R)-1-(4-iodo-2,5-dimethoxyphenyl)propan-2-amine::DOI,(-)::US20250270173, Compound DOI
Ki (Cannabinoid receptor 2): > 10 µM
Ki (Nischarin): > 10 µM
Ki [1]: 5.77 µM
Ki [6]: > 10 µM
Ki [7]: > 10 µM
Ki [4]: 0.0458 µM
Ki (Cannabinoid receptor 1): > 10 µM
Ki [2]: 0.601 µM
Ki [3]: 0.139 µM
Ki [10]: > 10 µM
